Assay results from paper PMC7954579 (Cancer chemotherapy and pharmacology, 2020).
Several values for one entry are separate records, joined by “and”; a condition that tells them apart may be missing. Identical values can stand only once.

What was measured:
[1] = Plasma pharmacokinetics in patients; assay type: in vivo, human; details: for half-life: t1/2,z
[2] = tested on: colorectal cancer cell line; assay: In vitro combination study in a colorectal cancer cell line; assay type: cell-based; details: Supplementary Fig. 1A
[3] = IV, days 1, 4, 8, 11 of 21-day cycle, with onalespib 80 mg/m^2 (DL2)
[4] = tested on: CDKs 1,2,4,5, and 9; details: read-out: IC50 range; cited from earlier work
[5] = twice-weekly schedule, monotherapy; cited from earlier work
[6] = All dose levels, C1D1, AT7519 after onalespib, n = 23, geometric mean
[7] = All dose levels, C1D11, AT7519 after onalespib, n = 15, geometric mean
[8] = DL1, C1D1, AT7519 21 mg/m^2 IV after onalespib 40 mg/m^2, n = 4, geometric mean
[9] = DL1, C1D11, AT7519 21 mg/m^2 IV after onalespib 40 mg/m^2, n = 2, geometric mean
[10] = DL2, C1D1, AT7519 21 mg/m^2 IV after onalespib 80 mg/m^2, n = 15, geometric mean
[11] = DL2, C1D11, AT7519 21 mg/m^2 IV after onalespib 80 mg/m^2, n = 11, geometric mean
[12] = DL3, C1D1, AT7519 27 mg/m^2 IV after onalespib 80 mg/m^2, n = 4, geometric mean
[13] = DL3, C1D11, AT7519 27 mg/m^2 IV after onalespib 80 mg/m^2, n = 2, geometric mean
[14] = human, plasma, iv, DL1, C1D1, AT7519 21 mg/m^2 IV after onalespib 40 mg/m^2, n = 4, geometric mean
[15] = human, plasma, iv, DL1, C1D11, AT7519 21 mg/m^2 IV after onalespib 40 mg/m^2, n = 2, geometric mean
[16] = human, plasma, iv, DL2, C1D1, AT7519 21 mg/m^2 IV after onalespib 80 mg/m^2, n = 15, geometric mean
[17] = human, plasma, iv, DL2, C1D11, AT7519 21 mg/m^2 IV after onalespib 80 mg/m^2, n = 11, geometric mean
[18] = human, plasma, iv, DL3, C1D1, AT7519 27 mg/m^2 IV after onalespib 80 mg/m^2, n = 4, geometric mean
[19] = human, plasma, iv, DL3, C1D11, AT7519 27 mg/m^2 IV after onalespib 80 mg/m^2, n = 2, geometric mean

O=C(NC1CCNCC1)c1n[nH]cc1NC(=O)c1c(Cl)cccc1Cl [AT7519, N-(4-piperidinyl)-4-(2,6-dichlorobenzoylamino)-1H-pyrazole-3-car-boxamide]
CL [1, 6]: 9.97 L/h/m^2
Vz [1, 6]: 144.3 L/m^2
CL [1, 7]: 8.93 L/h/m^2
Vz [1, 7]: 135.9 L/m^2
CL [1, 8]: 13.6 L/h/m^2
Vz [1, 8]: 146.6 L/m^2
CL [1, 9]: 9.98 L/h/m^2
Vz [1, 9]: 155.9 L/m^2
CL [1, 10]: 9.1 L/h/m^2 and 9.13 L/h/m^2
Cmax [1, 10]: 459.3 ng/mL
Vz [1, 10]: 146.3 L/m^2
CL [1, 11]: 8.6 L/h/m^2 and 8.58 L/h/m^2
Cmax [1, 11]: 508.7 ng/mL
Vz [1, 11]: 132.6 L/m^2
CL [1, 12]: 10.1 L/h/m^2
Vz [1, 12]: 134.7 L/m^2
CL [1, 13]: 10.0 L/h/m^2
Vz [1, 13]: 135.5 L/m^2
AUC [1, 14]: 1540 ng·h/mL
AUC [1, 15]: 2100 ng·h/mL
AUC [1, 16]: 2300 ng·h/mL
AUC [1, 17]: 2450 ng·h/mL
AUC [1, 18]: 2660 ng·h/mL
AUC [1, 19]: 2700 ng·h/mL
Cmax ([1]; human, plasma, iv, Cmax, DL1, C1D1, AT7519 21 mg/m^2 IV after onalespib 40 mg/m^2, n = 4, geometric mean): 463 ng/mL
Cmax ([1]; human, plasma, iv, Cmax, DL1, C1D11, AT7519 21 mg/m^2 IV after onalespib 40 mg/m^2, n = 2, geometric mean): 486 ng/mL
Cmax ([1]; human, plasma, iv, Cmax, DL2, C1D1, AT7519 21 mg/m^2 IV after onalespib 80 mg/m^2, n = 15, geometric mean): 459 ng/mL
Cmax ([1]; human, plasma, iv, Cmax, DL2, C1D11, AT7519 21 mg/m^2 IV after onalespib 80 mg/m^2, n = 11, geometric mean): 509 ng/mL
Cmax ([1]; human, plasma, iv, Cmax, DL3, C1D1, AT7519 27 mg/m^2 IV after onalespib 80 mg/m^2, n = 4, geometric mean): 602 ng/mL
Cmax ([1]; human, plasma, iv, Cmax, DL3, C1D11, AT7519 27 mg/m^2 IV after onalespib 80 mg/m^2, n = 2, geometric mean): 581 ng/mL
half-life [1, 14]: 7.48 h
half-life [1, 15]: 10.8 h
half-life [1, 16]: 11.1 h
half-life [1, 17]: 10.7 h
half-life [1, 18]: 9.21 h
half-life [1, 19]: 9.38 h
Effect on onalespib-induced HSP70 upregulation [2]: dose-dependent inhibition of onalespib-induced HSP70 upregulation
Maximally tolerated dose (MTD) of AT7519 in the combination [3]: 21 mg/m^2
IC50 [4]: 11 to 220 nM
RP2D as individual agent [5]: 27 mg/m^2
